Where two headings read alike, the source gives them in different places.
Tests used:
[1] = system: T-type Ca^2+ channels (LVA Ca^2+ current) in DRG neurons; assay: LVA (T-type) Ca2+ current, whole-cell patch clamp, cultured small-diameter DRG neurons; assay type: cell-based, rat; conditions: for effect on S9SP-mediated T-type current inhibition: 1 μM S9SP
Procedure: (§1) DRG neurons from adult male Sprague–Dawley rats (170–180 g) were dissociated as previously described ([13], [29]) and cultured in DMEM supplemented with GlutaMax I, 10% fetal calf serum, penicillin (50 U/ml), and streptomycin (50 μg/ml) on glass coverslips that were coated with poly-D-lysine for 2–5 days in a humidified incubator (37°C, 5% CO2). No growth factors were added to the culture media. HEK 293 cells were cultured in the same DMEM media; cells were passaged every 2 days. Human NK1 receptor (GenBank accession No. AY462098) complementary DNA (cDNA) was from the Missouri Science and Technology cDNA Resource Center. WtCaV3.1 (GenBank accession No. AF027984), wtCaV3.2 (GenBank accession No. AF051946), CaV3.1Q172H, and CaV3.2H191Q were kindly provided by Dr E. Perez-Reyes (University of Virginia). HEK293 cells were transfected using Lipofectamine 2000 (Invitrogen) according to the manufacturer's instructions. ST101 was synthesized in house; Z944 was from Toronto Research Chemicals; PTX was from Enzo Life Science; and FluoZin-3AM was from Life Technologies. All other chemicals were from Sigma.
All recordings were made using Multiclamp 700B amplifier in combination with pCLAMP 10.4 software (Molecular Devices). Voltage-clamp recordings from DRG neurons were made using whole-cell patch clamp. The standard bath solution contained the following (in mM): 150 TEA-Cl; 2.5 CsCl; 2.5 CaCl2; 10 HEPES; 0.5 MgCl2; and 10 glucose (pH 7.4 adjusted with CsOH). The standard pipette solution contained the following (in mM): 110 CsCl; 3 MgCl2; 10 EGTA; 10 HEPES; 3 Mg-ATP; and 0.6 GTP (pH 7.4 adjusted with CsOH). The access resistance was typically within 4–8 MΩ. T-type calcium currents (LVA) were measured by 50 ms square voltage pulses to −40 mV from a holding potential of −90 mV. HVA currents were measured by 200 ms square voltage pulses to 0 mV from a holding potential of −90 mV.
where y is the current inhibition; A1 and A2 are the maximum and minimum effects, respectively; x is the S9SP concentration; and nH is the Hill coefficient.

[2] = system: intracellular zinc levels in DRG neurons; assay: Intracellular zinc imaging with FluoZin-3AM; assay type: cell-based, rat; conditions: for effect on zinc levels elevated by ZnPy: in the presence of 10 μM ZnPy
Procedure: Changes in the intracellular zinc levels were evaluated using fluorescence imaging. DRG cultures were loaded with FluoZin-3AM (5 μM for 30 min at 37°C in the presence of 0.02% pluronic F-127). Cells were washed with extracellular bath solution composed of the following (in mM): 160 NaCl; 2.5 KCl; 2 CaCl2; 1 MgCl2; and 10 HEPES (pH 7.4 adjusted with NaOH); they were imaged using a Leica SP5 fluorescence imaging system assembled on a Leica DMI6000 microscope and illuminated with 488 nm light for 1200 ms (400 Hz) with a 2 s interval. Solutions were applied using a gravity perfusion system.

CaV3.2 = molecular target: T1, CaV3.2 (Homo sapiens, UniProt O95180); assay: Recombinant CaV3.2 current in HEK293 cells co-transfected with NK1 receptor, perforated patch; assay type: cell-based
T1 construct: expressed in transfected cells; host or cells: HEK293 cells, transient transfection with Lipofectamine 2000; The CaV3.2 cDNA was a gift of Dr E. Perez-Reyes; The NK1 cDNA was from the Missouri S&T cDNA Resource Center
Procedure: as §1
In recordings from HEK 293 cells, amphotericin B-perforated patch-clamp technique was used ([13]). The pipette solution contained the following (in mM): 155 CsCl; 10 HEPES; 1 EGTA; and 4 MgCl2 supplemented with amphotericin B (250 μg/ml), pH 7.4 adjusted with CsOH. The bath solution was the same as for DRG neuron recordings. The access resistance was typically within 8–12 MΩ.
In experiments with H2O2, 3% agar-salt (3 M KCl) bridges were used. Concentration dependence of CaV3.2 channel inhibition by zinc was fit to the two-component logistic function:
where N0 is the total amount of zinc-binding sites, N0(max1) is the amount of high-affinity binding sites, N0(max2) is the amount of low-affinity binding sites, Imax is the maximal CaV3.2 peak current amplitude, IC50 is the [Zn^2+] necessary for half-maximal inhibition, and nH is the Hill coefficient. The concentration dependency of the S9SP effect was fit to the one-component logistic function: […]

rat hind paw [3] = assay: BK-induced nocifensive behavior, pre-injection protocol; assay type: in vivo; conditions: pre-injection 50 μl; 1–10 nmol/site, 5 min before BK 10 nmol/site
Procedure: Sprague–Dawley rats (body weight, 170–180 g) were grouped randomly and allowed to acclimate for at least 30 min in a transparent observation chamber before the experiment. Animals received a 50-μl intraplantar injection of ST101 (0.001–10 nmol/site), BK (10 nmol/site), RTG (1–10 nmol/site), Z944 (0.05–5 nmol/site), SP (0.5–5 nmol/site), or saline, respectively, into the right hind paw. For evaluation of the acute “spontaneous” pain, animals were video-recorded for 30 min after the injection and protective (“nocifensive”) behavior was analyzed as time spent licking, biting, lifting, and flinching the injected paw. The analyses were performed by an observer who was unaware of treatment allocations. In the pre-injection experiments, the right hind paw of the animal received a pre-injection of 50 μl Z944 (0.05–0.5 nmol/site), RTG (1–10 nmol/site), SP (0.5 nmol/site), Z944 (0.05–0.5 nmol/site)+RTG (1 nmol/site), or saline; 5 min later, on the same paw, the animal received a further 50-μl injection of BK (10 nmol/site) together with the pre-injection drug mix. Nocifensive behavior was analyzed as described earlier.
The in vivo CaV3.2 knock-down was performed as described earlier ([3]) by using the same ODN sequences that were synthesized by SBS Genetech. AS ODNs had the following sequence: […]. The mismatch ODNs of the following sequence were used as a negative control: […]. The mismatch ODN was not complementary to any known nucleotide sequence. ODNs were reconstituted in saline before injection. ODNs (12.5 μg/rat in 10 μl of saline) or saline were injected intrathecally (i.t.) between the L5 and L6 dorsal spinous processes as described earlier ([3], [42]) under isoflurane anesthesia. The treatment was repeated twice daily for 4 days. The pain tests were performed on the next day after the last injection. After behavioral testing, animals were humanly sacrificed; lumbar DRGs were extracted and analyzed for the knock-down efficiency by comparing the Cacna1h mRNA levels in lumbar (L4 to L6) DRGs of the saline-injected, mismatch ODN-injected, and AS ODN-injected animals using RT-PCR. The same Cacna1h and Gapdh primers as in siRNA experiments were used for RT-PCR.

rat hind paw [4] = assay: Hargreaves test, paw withdrawal latency to noxious heat; assay type: in vivo; conditions: hind-paw injection 50 μl; 0.1–10 nmol/site; 8 min after injection
Procedure: For measurement of thermal hyperalgesia, the change in the latency of hind-paw withdrawal in response to noxious heat was recorded using the Hargreaves’ plantar method (Ugo Basile) at 8 min after the hind-paw injection of drugs; the heat source was set to 25% of the maximal intensity.

T1 sequence (O95180 whole entry): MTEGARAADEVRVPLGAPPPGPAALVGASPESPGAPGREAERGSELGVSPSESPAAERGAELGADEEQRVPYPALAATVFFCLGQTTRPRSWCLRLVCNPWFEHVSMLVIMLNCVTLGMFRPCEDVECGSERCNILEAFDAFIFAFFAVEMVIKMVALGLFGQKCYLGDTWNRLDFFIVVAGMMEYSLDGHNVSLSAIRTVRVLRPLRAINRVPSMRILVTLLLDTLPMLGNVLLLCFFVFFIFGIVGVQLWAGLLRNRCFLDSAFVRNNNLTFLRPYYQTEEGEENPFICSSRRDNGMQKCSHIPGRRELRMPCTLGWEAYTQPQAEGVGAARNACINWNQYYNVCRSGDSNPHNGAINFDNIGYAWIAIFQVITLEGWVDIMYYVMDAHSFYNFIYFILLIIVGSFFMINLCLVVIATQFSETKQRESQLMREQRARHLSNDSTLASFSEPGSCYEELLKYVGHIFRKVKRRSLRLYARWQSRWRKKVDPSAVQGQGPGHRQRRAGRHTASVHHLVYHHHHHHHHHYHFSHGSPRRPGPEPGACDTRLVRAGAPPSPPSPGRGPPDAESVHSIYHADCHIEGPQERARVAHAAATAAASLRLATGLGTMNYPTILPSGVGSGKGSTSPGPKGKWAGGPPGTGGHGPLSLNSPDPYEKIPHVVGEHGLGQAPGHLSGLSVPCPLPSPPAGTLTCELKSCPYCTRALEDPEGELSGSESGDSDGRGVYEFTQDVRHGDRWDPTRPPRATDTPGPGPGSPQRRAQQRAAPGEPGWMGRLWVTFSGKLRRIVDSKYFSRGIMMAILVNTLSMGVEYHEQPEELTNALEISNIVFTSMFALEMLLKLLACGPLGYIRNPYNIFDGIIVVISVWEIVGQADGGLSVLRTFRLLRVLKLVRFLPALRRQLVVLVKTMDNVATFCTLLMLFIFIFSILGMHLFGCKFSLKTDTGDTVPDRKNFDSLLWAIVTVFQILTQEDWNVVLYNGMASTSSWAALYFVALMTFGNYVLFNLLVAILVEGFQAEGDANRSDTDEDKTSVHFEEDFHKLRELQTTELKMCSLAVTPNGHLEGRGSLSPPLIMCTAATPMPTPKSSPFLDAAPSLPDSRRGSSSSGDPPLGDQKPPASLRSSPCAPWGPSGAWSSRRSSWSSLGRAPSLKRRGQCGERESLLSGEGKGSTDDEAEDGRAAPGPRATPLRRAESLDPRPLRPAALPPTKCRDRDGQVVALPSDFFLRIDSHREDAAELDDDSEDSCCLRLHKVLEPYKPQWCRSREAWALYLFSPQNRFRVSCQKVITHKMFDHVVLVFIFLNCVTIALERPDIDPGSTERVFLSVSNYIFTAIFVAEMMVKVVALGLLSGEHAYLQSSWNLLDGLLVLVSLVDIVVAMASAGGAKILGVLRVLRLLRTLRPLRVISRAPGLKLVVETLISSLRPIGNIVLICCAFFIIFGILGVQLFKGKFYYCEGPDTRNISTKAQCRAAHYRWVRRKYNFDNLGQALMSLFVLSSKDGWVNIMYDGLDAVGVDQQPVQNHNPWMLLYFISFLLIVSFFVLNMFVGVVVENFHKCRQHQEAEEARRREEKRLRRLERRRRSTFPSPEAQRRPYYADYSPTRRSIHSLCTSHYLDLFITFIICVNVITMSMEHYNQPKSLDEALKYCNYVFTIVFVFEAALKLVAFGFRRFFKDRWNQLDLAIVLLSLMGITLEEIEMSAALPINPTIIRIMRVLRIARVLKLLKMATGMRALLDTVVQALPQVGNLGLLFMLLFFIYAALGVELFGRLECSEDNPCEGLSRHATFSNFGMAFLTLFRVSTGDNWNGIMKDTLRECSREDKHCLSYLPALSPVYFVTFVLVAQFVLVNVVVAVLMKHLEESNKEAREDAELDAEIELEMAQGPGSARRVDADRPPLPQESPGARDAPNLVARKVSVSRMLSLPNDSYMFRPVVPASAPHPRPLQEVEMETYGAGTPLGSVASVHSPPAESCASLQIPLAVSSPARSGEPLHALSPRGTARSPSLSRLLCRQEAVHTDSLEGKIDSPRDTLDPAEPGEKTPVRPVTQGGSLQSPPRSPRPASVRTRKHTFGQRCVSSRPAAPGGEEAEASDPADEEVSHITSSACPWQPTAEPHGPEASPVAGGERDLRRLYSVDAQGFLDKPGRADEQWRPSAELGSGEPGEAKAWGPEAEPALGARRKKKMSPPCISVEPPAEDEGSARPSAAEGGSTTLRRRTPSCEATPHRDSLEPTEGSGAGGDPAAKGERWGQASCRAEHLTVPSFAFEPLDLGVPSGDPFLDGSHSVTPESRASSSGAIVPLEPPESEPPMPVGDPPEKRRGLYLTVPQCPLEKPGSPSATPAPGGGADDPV

COc1ccccc1CN[C@H]1CCCN[C@H]1c1ccccc1.Cl.Cl [CP-99994, (2S,3S)-3-(2-Methoxybenzylamino)-2-phenylpiperidine dihydrochloride]
effect on S9SP-induced LVA current inhibition ([1]; 3 μM, 30 min pre-incubation, co-applied with 1 μM S9SP): abolished the effect of S9SP

CN(C)CCCn1cc(C2=C(c3c[nH]c4ccccc34)C(=O)NC2=O)c2ccccc21 [BIM I, bisindolylmaleimide I]
effect on S9SP-mediated T-type current inhibition ([1]; 200 nM, 20 min pretreatment): without a significant effect

[Cl-].[Cl-].[Zn+2] [ZnCl2]
inhibition of LVA current ([1]; 750 nM, n = 9): ~25% | intracellular zinc levels (FluoZin-3 fluorescence) ([2]; 1.5 mM): large responses | maximal inhibition at the high-affinity site (CaV3.2; S9SP-treated cells (1 μM)): 44.1% ± 5.1% | IC50 (CaV3.2; after S9SP treatment, 1 μM S9SP in all ZnCl2 solutions, read-out: IC50(1), high-affinity site, zinc inhibition of CaV3.2): 0.35 ± 0.25 nM | IC50 (CaV3.2; after S9SP treatment, 1 μM S9SP in all ZnCl2 solutions, read-out: IC50(2), low-affinity site, zinc inhibition of CaV3.2): 923 ± 582 nM | maximal inhibition at the high-affinity site (CaV3.2; control cells): 9.9% ± 11.3% | IC50 (CaV3.2; control conditions, two-component logistic fit, 6–12 experiments, read-out: IC50(1), high-affinity site, zinc inhibition of CaV3.2): 0.25 nM | IC50 (CaV3.2; control conditions, two-component logistic fit, 6–12 experiments, read-out: IC50(2), low-affinity site, zinc inhibition of CaV3.2): 495 ± 326 nM

CSCC[C@H](NC(=O)[C@H](CC(C)C)NC(=O)CN(C)C(=O)[C@H](Cc1ccccc1)NC(=O)[C@H](Cc1ccccc1)NC(=O)[C@H](CCC(N)=O)NC(=O)[C@H](CCC(N)=O)NC(=O)[C@@H]1CCCN1C(=O)[C@H](CCCCN)NC(=O)[C@@H]1CCCN1C(=O)[C@@H](N)CCCNC(=N)N)C(N)=O [S9SP, [Sar^9]-Substance P]
current amplitude in the presence of S9SP, % of basal value (CaV3.2; 1 μM S9SP, wtCaV3.2, mean ± SEM, n = 13, SEM): 69.8% ± 6.8%

CCOC(=O)Nc1ccc(NCc2ccc(F)cc2)cc1N [RTG, retigabine]
BK-induced nociception (rat hind paw [3]): significantly attenuated | paw withdrawal latency on radiant heat exposure (rat hind paw [4]): produced a similar effect

OO [H2O2]
inhibition of LVA current ([1]; 300 μM bath application): ~20% | effect on recombinant CaV3.2 (CaV3.2; H2O2): inhibited

CCCCCC[C@H]1C(=O)O[C@H](C)[C@H](NC(=O)c2cccc(NC=O)c2O)C(=O)O[C@@H](C)[C@@H]1OC(=O)CC(C)C [antimycin A]
inhibition of LVA current ([1]; 1 μM): ~25%

Arg-Pro-Lys-Pro-Gln-Gln-Phe-Phe-Sar-Leu-Met[O2]-NH2 [S9M11SP, [Sar^9, Met(O2)^11]-Substance P]
LVA current inhibition ([1]; 1 μM): quantitatively similar to that of S9SP

O[C@@H](CS)[C@@H](O)CS (racemic) [DTT, dithiothreitol]
effect on LVA current amplitude on its own ([1]; 1 mM): did not significantly affect | prevention of S9SP effect on LVA current when applied together ([1]; 1 mM DTT before and during 1 μM S9SP): rendered S9SP ineffective | reversal of S9SP-induced LVA current inhibition ([1]; 1 mM DTT in continued presence of 1 μM S9SP): completely reversed | reversal of antimycin A-induced LVA current inhibition ([1]; 1 mM DTT, 1 μM antimycin A): completely reversed | reversal of H2O2-induced LVA current inhibition ([1]; 1 mM DTT, 300 μM H2O2): reversed | effect on zinc levels elevated by ZnPy ([2]; 1 mM): did not alter the elevated zinc levels

COCC(=O)O[C@]1(CCN(C)CCCc2nc3ccccc3[nH]2)CCc2cc(F)ccc2[C@@H]1C(C)C [MIB, mibefradil]
sensitivity of LVA currents to inhibitor ([1]; 3 μM): sensitive

c1ccc(CN(CCN(Cc2ccccn2)Cc2ccccn2)Cc2ccccn2)nc1 [TPEN, N,N,N′,N′-Tetrakis(2-pyridylmethyl)ethylenediamine]
reversal of S9SP-induced LVA current inhibition ([1]; 10 μM TPEN bath application, still in the presence of 1 μM S9SP): completely reversed | effect on zinc levels elevated by ZnPy ([2]; 20 μM): completely reversed the increase in fluorescence | effect on SP- and H2O2-induced inhibitions of recombinant CaV3.2 (CaV3.2): prevented | effect on CaV3.2 currents in control conditions (CaV3.2; 10 μM): only marginal augmentation

pertussis toxin [PTX]
effect on S9SP-mediated T-type current inhibition ([1]; 400 ng/ml overnight pre-treatment): completely abolished

Reference: publication PMC4971421, “Redox-Dependent Modulation of T-Type Ca^2+ Channels in Sensory Neurons Contributes to Acute Anti-Nociceptive Effect of Substance P” (Antioxidants & Redox Signaling, 2016)
